Values after ≈ are worked out from the molar mass of the structure shown. Read-outs that look alike come from different tables or passages of the source.
Tests used:
[1] = system: P. aeruginosa strain PA239; assay: Bactericidal assay (MBC) in FBS-containing medium FMP; assay type: cell-based; details: within 3h of incubation
Method: Bacteria were incubated with each of the indicated peptides in MHB2. […] To assess bactericidal properties of the peptide, the assay was modified by using 15% fetal bovine serum (FBS, for a more physiologically relevant test condition) mixed with 25% MHB2 and 60% PBS. […] Data were analyzed using GraphPad Prism software.

[2] = system: K. pneumoniae; assay: microbe, parasite or virus in culture; assay type: cell-based, Klebsiella pneumoniae; details: Klebsiella pneumoniae, 18 h, MHB2, 18 h, 37°C
Method in brief: (§1)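 Clinical isolates in log phase were exposed to peptides in cation-adjusted MHB for 18 h at 37 °C, with growth followed hourly at A570 to give the MIC by a modified CLSI method. For MBC, bacteria were treated 3 h in 15% FBS/25% MHB/60% PBS and then plated; MBC was the concentration giving complete killing.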

[3] = system: E. coli; assay: microbe, parasite or virus in culture; assay type: cell-based, Escherichia coli; details: Escherichia coli, 18 h, MHB2, 18 h, 37°C
Method in brief: as §1

[4] = system: A. baumannii; assay: microbe, parasite or virus in culture; assay type: cell-based, Acinetobacter baumannii; details: Acinetobacter baumannii, 18 h, MHB2, 18 h, 37°C
Method in brief: as §1

[5] = system: CDC AR isolates; set-up: key: S (green), susceptible; I (blue), intermediate; R (red), resistant; details: data provided by the CDC, ref CDC, cited from earlier work
Description: Supplement Table_3.XLSX, sheet "CDC AR isolates profiles" | column: G(-) strains

[6] = system: P. aeruginosa; assay: microbe, parasite or virus in culture; assay type: cell-based, Pseudomonas aeruginosa; details: Pseudomonas aeruginosa, MHB2, 18 h, 37°C
Method: Bacterial clinical isolates, used for initial screening and in previous studies ([Deslouches et al., 2013]; [Lin et al., 2018]), were anonymously provided by the clinical microbiology laboratory of the University of Pittsburgh medical Center. The panel used for secondary screening was from [CDC (2013)] (Supplementary Table 3), with resistance profiles data. Bacteria are stored in lock-secured –80°C freezer and typically retrieved by obtaining single colonies on agar plates prior for subsequent liquid broth cultures. Suspensions of test bacteria were prepared from log phase of growth by diluting overnight cultures at 1:100 with fresh cation-adjusted MHB (MHB2, Millipore Sigma, United States) and incubating for additional 3–4 h. Bacteria were spun at 3,000 × g for 10 min and the pellet resuspended in test condition media (Millipore Sigma, United States) to determine bacterial turbidity using a Den-1B densitometer (Grant Instruments, United States) at 0.5 McFarland (unit of bacterial density) corresponding to […].
To examine antibacterial activity, we used minor modifications of a standard growth inhibition assay endorsed by the Clinical and Laboratory Standards Institute (CLSI), as previously described ([Deslouches et al., 2013]). Bacteria were incubated with each of the indicated peptides in MHB2. The bacterial cells were kept in an incubator for 18 h at 37°C, which is linked to a robotic system that feeds a plate reader every hour with one of 8 × 96-well plates. This set-up allows the collection of growth kinetic data at A 570 (absorbance at 570 nm) to examine growth inhibition in real time (BioTek Instruments, United States). […] The assays are typically repeated a second time. If the MIC is different, a third experimental trial is performed to confirm the MIC. To assess bactericidal properties of the peptide, the assay was modified by using 15% fetal bovine serum (FBS, for a more physiologically relevant test condition) mixed with 25% MHB2 and 60% PBS. Bacterial cells (colony forming unit/mL or CFU/mL) were enumerated after incubating treated bacteria for 3 h and plating serially diluted samples on broth agar medium at 37°C overnight. Minimum bactericidal concentration (MBC) was determined as the peptide concentration at which complete bacterial killing was observed. […] Data were analyzed using GraphPad Prism software.

[7] = system: Enterobacter spp; assay: microbe, parasite or virus in culture; assay type: cell-based, Enterobacter spp (aerogenes, cloacae); details: Enterobacter, 18 h, UPMC, MHB2, 18 h, 37°C
Method in brief: as §1

What does the source list for `NC[C@H]1O[C@H](O[C@H]2[C@H](O)[C@@H](O[C@H]3O[C@H](CO)[C@@H](O)[C@H](N)[C@H]3O)[C@H](N)C[C@@H]2N)[C@H](N)C[C@@H]1O` [Tobramycin, reference compound]?
bacterial killing [1]: did not display any substantial bacterial killing; MIC ([2]; strain KPA5 (colistin-resistant), UPMC): > 16 µM; MIC ([2]; strain KPB3, UPMC): > 16 µM; MIC ([3]; strain YDC337, UPMC): > 16 µM; MIC ([3]; strain YDC748, UPMC): 16 µM (≈ 7.48 µg/mL); MIC ([4]; strain AB-A2, UPMC clinical strain, A570, confirmed by 2nd or 3rd trial): 0.5 µM (≈ 0.234 µg/mL); MIC ([4]; strain AB-A3, UPMC): 16 µM (≈ 7.48 µg/mL); MIC ([4]; strain AB-F8, UPMC): > 16 µM; MIC ([4]; strain AB-F9, UPMC): 2 µM (≈ 0.935 µg/mL); Antibiotic susceptibility profile ([5]; Acinetobacter baumannii AB273, CDC AR isolate): R; Antibiotic susceptibility profile ([5]; Acinetobacter baumannii AB274, CDC AR isolate): S; Antibiotic susceptibility profile ([5]; Acinetobacter baumannii AB275, CDC AR isolate): R; Antibiotic susceptibility profile ([5]; Acinetobacter baumannii AB276, CDC AR isolate): R; Antibiotic susceptibility profile ([5]; Enterobacter cloacae E62, CDC AR isolate): R; Antibiotic susceptibility profile ([5]; Escherichia coli EC541, CDC AR isolate): R; Antibiotic susceptibility profile ([5]; Escherichia coli EC543, CDC AR isolate): R; Antibiotic susceptibility profile ([5]; Escherichia coli EC544, CDC AR isolate): R; Antibiotic susceptibility profile ([5]; Escherichia coli EC549, CDC AR isolate): R; Antibiotic susceptibility profile ([5]; Klebsiella pneumoniae KP542, CDC AR isolate): R; Antibiotic susceptibility profile ([5]; Klebsiella pneumoniae KP548, CDC AR isolate): S; Antibiotic susceptibility profile ([5]; Klebsiella pneumoniae KP550, CDC AR isolate): R; Antibiotic susceptibility profile ([5]; Klebsiella pneumoniae KP552, CDC AR isolate): R; Antibiotic susceptibility profile ([5]; Pseudomonas aeruginosa PA229, CDC AR isolate): S; Antibiotic susceptibility profile ([5]; Pseudomonas aeruginosa PA230, CDC AR isolate): R; Antibiotic susceptibility profile ([5]; Pseudomonas aeruginosa PA231, CDC AR isolate): R; Antibiotic susceptibility profile ([5]; Pseudomonas aeruginosa PA232, CDC AR isolate): R; Antibiotic susceptibility profile ([5]; Pseudomonas aeruginosa PA239, CDC AR isolate): R; MIC ([6]; 18 h, strain PA01): 1 µM (≈ 0.468 µg/mL); MIC ([6]; 18 h, strain PA97-5, UPMC): > 16 µM; MIC ([6]; 18 h, strain PA129-5, UPMC): 16 µM (≈ 7.48 µg/mL); MIC ([6]; PA14, 18 h, strain PA14): 0.5 µM (≈ 0.234 µg/mL); MIC ([7]; strain EA518 (aerogenes)): > 16 µM; MIC ([7]; strain EA596 (aerogenes)): > 16 µM; MIC ([7]; strain EC470 (cloacae)): 4 µM (≈ 1.87 µg/mL); MIC ([7]; strain EC560 (cloacae)): > 16 µM

Source: publication PMC9186412, “Rational Framework for the Design of Trp- and Arg-Rich Peptide Antibiotics Against Multidrug-Resistant Bacteria” (Frontiers in Microbiology, 2022)
